Where two headings read alike, the source gives them in different places.
Assays:
[1] = test system: stomach (gastric peristalsis); assay: Testing of the gastric peristalsis (measurements of the gastric pressure); assay type: in vivo, rats; conditions: for inhibition in vivo at 20 mg/kg: Rattus norvegicus, ip, read-out: Frequency decrease in %
Text: To determine the functioning of the gastric peristalsis, rats weighing about 200 g. are narcotized by means of ketamine hydrochloride and xylazine. A catheter is introduced into the Vena jugularis of the narcotized rats and a tracheal catheter into their trachea. A stomach probe is inserted into their stomach and tied thereto. Said probe is connected via a three-way cock with a Statham pressure imparting device (P 23 DB). The stomach is sealed off by a ligature at the pylorus and at the cardia. The stomach is filled with 3 ml. of an 0.9% aqueous sodium chloride solution. The pressure waves produced by the stomach are continuously registered by a suitable recording device such as by a Watanabe Multicorder (MC 641). In order to determine the effect of the compounds to be tested, they are dissolved in physiological sodium chloride solution or are suspended in Tylose MH 50 solution. Said solutions or suspensions are administered intraperitoneally to the rats in a dosis of 20 mg./kg. The amplitudes and frequencies of the pressure wave-like movements of the stomach as they occur before and after administration of the compound to be tested, are compared.

[2] = Determination of the acute toxicity (seven-day, single intraperitoneal dose); conditions: in vivo, ip, white NMRI mouse, fasting, single i.p. dose, probit analysis
Method: The acute seven-day toxicity is determined by intraperitoneal administration of a single dose of the respective compound to a fasting white NMRI mouse. The LD50 -values are calculated via EDV by a probit analysis as described in the book "Grundbegriffe der Biometrie" (Basic biometrical definitions) by L. Cavalli-Sforza, page 153 et seq., published by Gustav Fischer Verlag, Stuttgart, 1964.

[3] = gastric pressure waves, narcotized rats, 20 mg./kg. intraperitoneally, before vs after administration

In the case of `COC(=O)c1c(OC)c2ccccc2n1CCN(C)C.Cl` [(A), 1-(β-Dimethylaminoethyl)-2-methoxy carbonyl-3-methoxy-indole hydrochloride], the inhibition in vivo at 20 mg/kg [1, 3] is reported as 3.3%, the “Factor of the increase in amplitude” value [1, 3] is reported as 6.2 and the LD50 at 168 h [2] is reported as 171 mg/kg.

With `COC(=O)c1c(OCc2ccccc2)c2cc(Cl)ccc2n1CCN(C)C.Cc1ccc(S(=O)(=O)O)cc1` [(E), 1-(β-dimethylaminoethyl)-2-methoxy carbonyl-3-benzyloxy-5-chloroindole toluene-4-sulfonate] the inhibition in vivo at 20 mg/kg [1] was -2%, the “Factor of the increase in amplitude” value [1, 3] was 0.6 and the LD50 at 168 h [2] was 283 mg/kg.

With `COc1c(C(N)=O)n(CCN(C)C)c2ccccc12` [(L), 1-(β-dimethylaminoethyl)-2-amino carbonyl-3-methoxy indole] the inhibition in vivo at 20 mg/kg [1, 3] was 28%, the “Factor of the increase in amplitude” value [1, 3] was 13.9 and the LD50 at 168 h [2] was 68 mg/kg.

With `COC(=O)c1c(OC)c2ccccc2n1CCCN1CCCCC1` [(I), 1-(γ-N-piperidinopropyl)-2-methoxy carbonyl-3-methoxy indole maleinate] the inhibition in vivo at 20 mg/kg [1, 3] was 15%, the “Factor of the increase in amplitude” value [1, 3] was 8.6 and the LD50 at 168 h [2] was 141 mg/kg.

In the case of `CCOc1c(C(=O)OC)n(CCN(C)C)c2ccc(Cl)cc12.Cl` [(C), 1-(β-dimethylaminoethyl)-2-methoxy carbonyl-3-ethoxy-5-chloro indole hydrochloride], the inhibition in vivo at 20 mg/kg [1, 3] is reported as 9%, the “Factor of the increase in amplitude” value [1, 3] is reported as 1.4 and the LD50 at 168 h [2] is reported as 141 mg/kg.

With `CCOC(=O)c1c(OCC)c2ccc(Cl)cc2n1CCN(C)C.Cc1ccc(S(=O)(=O)O)cc1` [(F), 1-(β-dimethylaminoethyl)-2-ethoxy carbonyl-3-ethoxy-6-chloro indole toluene-4-sulfonate] the inhibition in vivo at 20 mg/kg [1] was 5%, the “Factor of the increase in amplitude” value [1, 3] was 10.9 and the LD50 at 168 h [2] was 226 mg/kg.

For `COC(=O)c1c(OC)c2ccc(C)cc2n1CCN(C)C.Cl` [(B), 1-(β-dimethylaminoethyl)-2-methoxy carbonyl-3-methoxy-6-methyl indole hydrochloride], the inhibition in vivo at 20 mg/kg [1, 3] was 7%, the “Factor of the increase in amplitude” value [1, 3] was 22.7 and the LD50 at 168 h [2] was 68 mg/kg.

In the case of `COc1c(C(=O)O)n(CCN(C)C)c2ccccc12` [(K), 1-(β-dimethylaminoethyl)-2-hydroxy carbonyl-3-methoxy indole], the inhibition in vivo at 20 mg/kg [1, 3] is reported as 21%, the “Factor of the increase in amplitude” value [1, 3] is reported as 3.6 and the LD50 at 168 h [2] is reported as 967 mg/kg.

With `COC(=O)c1c(OC(C)C)c2cc(C)ccc2n1CCN(C)C.Cl` [(D), 1-(β-dimethylaminoethyl)-2-methoxy carbonyl-3-isopropyloxy-5-methyl indole hydrochloride] the inhibition in vivo at 20 mg/kg [1, 3] was 19%, the “Factor of the increase in amplitude” value [1, 3] was 6.9 and the LD50 at 168 h [2] was 137 mg/kg.

In the case of `COC(=O)c1c(OC)c2ccccc2n1CCCNC(C)C.Cl` [(G), 1-(γ-isopropylaminopropyl)-2-methoxy carbonyl-3-methoxy indole hydrochloride], the inhibition in vivo at 20 mg/kg [1, 3] is reported as 29%, the “Factor of the increase in amplitude” value [1, 3] is reported as 8.3 and the LD50 at 168 h [2] is reported as 91 mg/kg.

For `CNC(=O)c1c(OC)c2ccccc2n1CCN(C)C` [(M), 1-(β-dimethylaminoethyl)-2-methylamino carbonyl-3-methoxy indole], the inhibition in vivo at 20 mg/kg [1, 3] was 13%, the “Factor of the increase in amplitude” value [1, 3] was 21.4 and the LD50 at 168 h [2] was 68 mg/kg.

With `COC(=O)c1c(OC)c2ccccc2n1CCCCN(C)C.Cc1ccc(S(=O)(=O)O)cc1` [(H), 1-(δ-dimethylaminobutyl)-2-methoxy carbonyl-3-methoxy indole toluene-4-sulfonate] the inhibition in vivo at 20 mg/kg [1] was 11%, the “Factor of the increase in amplitude” value [1, 3] was 3.5 and the LD50 at 168 h [2] was 164 mg/kg.
